# Several values for one entry are separate records, joined by “and”; a condition that tells them apart may be missing. Equal entries are not always repeated. Where two headings read alike, the source gives them in different places.
# Target: T1, Human GLP-1 receptor (Homo sapiens, UniProt P43220)
# T1 construct: expressed in transfected cells
# Assay: Measurement of GLP-1 receptor agonist activity (cAMP assay)
# Type: cell-based
# Experimental: Test Example 1: (Measurement of GLP-1 Receptor Agonist Activity)
# Human GLP-1 receptor stably expressing cells (hGLP-1R/CHO-K1 cells) are cultured in an α-MEM medium (Sigma) containing 10% FBS (Hyclone), 2% GlutaMAX (Gibco), 1% G418 (Nacalai Tesque), and 1% Penicillin-Streptomycin Mixed Solution (Sigma) at 37° C. under 5% CO2 conditions, and recovered by treating a 10 fold diluted 5.0 g/l-trypsin/5.3 mmol/l-EDTA solution (Nacalai Tesque) and cryopreserved.
# A DMSO solution containing the compound of the present invention or human GLP-1 (7-36) (Phoenix Pharmaceuticals) is dispensed into a 384-well microplate (Greiner) at 62.5 nL/well, and in addition, 400 μM Forskolin (Nacalai Tesque) is dispensed therein at 7.5 nL/well. Subsequently, the frozen GLP-1 R/CHO-K1 cells are thawed in a thermostatic bath at 37° C., suspended in HBSS buffer (GIBCO) containing 0.1% BSA (Sigma), 20 mM HEPES (GIBCO), 0.1 mM IBMX (Sigma), and 0.2 mM RO20-1724 (Calbiochem) at 2×10^4 cells/mL, and the cell suspension is added at 6 μL/well. The solution was incubated at 37° C. for 1 hour and intracellular cAMP concentration is measured using cAMP Gs dynamic kit (Cisbio) according to the protocol attached to the product. Specifically, cAMP-d2 and Anti-cAMP-Cryptate are each added in an amount of 3 μL/well, the mixture is incubated at room temperature for 1 hour, and time-resolved fluorescence is measured using PHERAstar (BMG Labtech).
# The dilution concentration or the dilution solvent are changed as necessary.
# The compounds of the present invention were tested essentially as described above.
# [1] = CHO-K1, hGLP-1R/CHO-K1 cells, cAMP, 100% = human GLP-1 (7-36) at 2 nM, 0% = DMSO only, read-out: Emax(%)
# [2] = hGLP-1R/CHO-K1 cells, cAMP increase, 37° C. 1 hour
# [3] = CHO-K1, maximum effect, cAMP increase in GLP-1 R/CHO-K1 cells, 2 nM human GLP-1 (7-36) = 100%, DMSO only = 0%, read-out: Emax
# [4] = cAMP increase in GLP-1 R/CHO-K1 cells, 2 nM human GLP-1 (7-36) = 100%, DMSO only = 0%
# T1 sequence (P43220 24-463): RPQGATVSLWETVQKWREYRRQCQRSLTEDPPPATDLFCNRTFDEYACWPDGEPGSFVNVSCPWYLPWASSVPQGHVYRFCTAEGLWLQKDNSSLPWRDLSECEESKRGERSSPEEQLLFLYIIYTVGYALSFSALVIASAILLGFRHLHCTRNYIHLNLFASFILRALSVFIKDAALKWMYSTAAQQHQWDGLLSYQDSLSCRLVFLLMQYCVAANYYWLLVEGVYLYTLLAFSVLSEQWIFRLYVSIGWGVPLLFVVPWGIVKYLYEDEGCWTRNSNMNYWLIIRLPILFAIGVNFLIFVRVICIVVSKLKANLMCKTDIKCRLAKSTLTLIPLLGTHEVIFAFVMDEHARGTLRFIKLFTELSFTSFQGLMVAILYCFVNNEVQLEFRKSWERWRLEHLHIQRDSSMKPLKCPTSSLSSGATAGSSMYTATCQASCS
Compound,Emax [1] [%],EC50 [2] [nM],Emax [3] [%],EC50 [4],"Emax (maximum effect, cAMP increase in GLP-1 R/CHO-K1 cells, 2 nM human GLP-1 (7-36) = 100%, DMSO only = 0%) [%]"
C[C@H]1c2cc(OCc3ccc(F)cc3F)c(C(F)(F)F)cc2CCN1Cc1nc2ccc(C(=O)O)cc2n1C[C@@H]1CCO1 [Compound I-166],111,1.23,–,–,–
O=C(O)c1ccc2nc(CN3CCc4cc(C(F)(F)F)c(OCc5ccc(F)cc5)cc4C3)n(C[C@@H]3CCO3)c2c1 [Compound I-079],103,6.8,–,–,–
O=C(O)c1ccc2nc(CN3CCc4cc(C(F)(F)F)c(OCc5ccccc5)cc4C3)n(C[C@@H]3CCO3)c2c1 [Compound I-156],89,36.8,–,–,–
C[C@H]1c2cc(OCc3ccc(C4CC4)cc3)c(C(F)(F)F)cc2CCN1Cc1nc2ccc(C(=O)O)cc2n1C[C@@H]1CCO1 [Compound I-163],131,10.6,–,–,–
Cc1ccc(COc2cc3c(cc2C(F)(F)F)CCN(Cc2nc4ccc(C(=O)O)cc4n2C[C@@H]2CCO2)C3)nc1 [Compound I-136],107,5.73,–,–,–
O=C(O)c1ccc2nc(CN3CCc4cc(C(F)(F)F)c(OCc5ncc(Cl)cc5F)cc4C3)n(C[C@@H]3CCO3)c2c1 [Compound I-068],114,3.54,–,–,–
O=C(O)c1ccc2nc(CN3CCc4cc(C(F)(F)F)c(OCc5ccc(OC(F)(F)F)cc5)cc4C3)n(C[C@@H]3CCO3)c2c1 [Compound I-084],106,91.9,–,–,–
O=C(O)c1ccc2nc(CN3CCc4cc(C(F)(F)F)c(OCc5c(F)cc(F)cc5F)cc4C3)n(C[C@@H]3CCO3)c2c1 [Compound I-107],101,3.5,–,–,–
C[C@H]1c2cc(OCc3ccc(C4CC4)cc3)c(C(F)(F)F)cc2CCN1Cc1nc2c(F)cc(C(=O)O)cc2n1C[C@@H]1CCO1 [Compound I-207],90.3,1.72,–,–,–
C[C@H]1c2cc(OCc3ccc(C#N)cc3F)c(C(F)(F)F)cc2CCN1Cc1nc2c(F)cc(C(=O)O)cc2n1C[C@@H]1CCO1 [Compound I-214],104,0.392,–,–,–
Cc1cc(F)cc(C)c1COc1cc2c(cc1C(F)(F)F)CCN(Cc1nc3ccc(C(=O)O)cc3n1C[C@@H]1CCO1)C2 [Compound I-159],92.3,13.3,–,–,–
O=C(O)c1ccc2nc(CN3CCc4cc(C(F)(F)F)c(OCc5ccc(Cl)cc5F)cc4C3CF)n(C[C@@H]3CCO3)c2c1 (mixture of isomers) [Compound I-133],112,4.5,–,–,–
Cc1csc(COc2cc3c(cc2C(F)(F)F)CCN(Cc2nc4ccc(C(=O)O)c(F)c4n2C[C@@H]2CCO2)[C@H]3C)n1 [Compound I-192],123,1.2,–,–,–
O=C(O)c1ccc2nc(CN3CCc4cc(C(F)(F)F)c(OCc5ccc(Cl)cc5F)cc4C3)n(CCOC(F)F)c2c1 [Compound I-063],128,98.1,–,–,–
Cn1cc(COc2cc3c(cc2C(F)(F)F)CCN(Cc2nc4ccc(C(=O)O)cc4n2C[C@@H]2CCO2)C3)cn1 [Compound I-071],114,63.9,–,–,–
O=C(O)c1ccc2nc(CN3CCc4cc(C(F)(F)F)c(OCc5ccc(Cl)cc5F)cc4C3)n(CC3(CF)CC3)c2c1 [Compound I-043],109,13.2,–,–,–
O=C(O)c1ccc2nc(CN3CCc4cc(C(F)(F)F)c(OCc5ccc(Cl)cc5F)cc4C3)n(C[C@@H]3CCO3)c2n1 [Compound I-026],85,6.35,–,–,–
O=C(O)c1ccc2nc(CN3CCc4cc(C(F)(F)F)c(OCc5ccc6c(c5)CCC6)cc4C3)n(C[C@@H]3CCO3)c2c1 [Compound I-074],100,40,–,–,–
O=C(O)c1ccc2nc(CN3CCc4cc(C(F)(F)F)c(OCc5ccc(Cl)cn5)cc4C3)n(C[C@@H]3CCO3)c2c1 [Compound I-067],130,3.33,–,–,–
O=C(O)c1cc(C(F)F)c2nc(CN3CCc4cc(C(F)(F)F)c(OCc5ccc(Cl)cc5F)cc4C3)n(C[C@@H]3CCO3)c2c1 [Compound I-146],102,40.3,–,–,–
C[C@H]1c2cc(OCc3ccc(Cl)cn3)c(C(F)(F)F)cc2CCN1Cc1nc2ccc(C(=O)O)nc2n1C[C@@H]1CCO1 [Compound I-176],98.3,2.12,–,–,–
O=C(O)c1ccc2nc(CN3CCc4cc(C(F)(F)F)c(OCc5ccc(F)cc5F)cc4C3)n(C[C@@H]3CCO3)c2c1 [Compound I-106],101,6.88,–,–,–

# Further lines, results first:
Emax [1] [%],EC50 [2] [nM],Emax [3] [%],EC50 [4],"Emax (maximum effect, cAMP increase in GLP-1 R/CHO-K1 cells, 2 nM human GLP-1 (7-36) = 100%, DMSO only = 0%) [%]",Compound
–,–,98.3,0.537 nM,–,COc1cc(Cl)ccc1COc1cc2c(cc1Cl)CCN(Cc1nc3ccc(C(=O)O)nc3n1C[C@@H]1CCO1)[C@H]2C [Compound I-314]
–,–,102,2.03 nM,–,C[C@H]1c2cc(OCc3c(F)cc(Cl)cc3F)c(Cl)cc2CCN1Cc1nc2ccc(C(=O)O)cc2n1C[C@@H]1CCO1 [Compound I-312]
–,–,105,0.0656 nM,–,COc1cc(Cl)ccc1COc1cc2c(cc1C(F)(F)F)CCN(Cc1nc3c(OC)cc(C(=O)O)cc3n1C[C@@H]1CCO1)[C@H]2C [Compound I-229]
110,0.251,–,–,–,C[C@H]1c2nc(OCc3ccc(F)cc3Cl)c(C(F)(F)F)cc2CCN1Cc1nc2ccc(C(=O)O)cc2n1C[C@@H]1CCO1 [Compound I-220]
–,–,118,0.25 nM,–,C[C@H]1c2nc(OCc3ccc(C4CC4)cc3)c(C(F)(F)F)cc2CCN1Cc1nc2ccc(C(=O)O)c(F)c2n1C[C@@H]1CCO1 [Compound I-356]
–,–,120,0.136 nM and 0.2 nM,102,C[C@H]1c2nc(OCc3ccccc3Cl)c(C(F)(F)F)cc2CCN1Cc1nc2c(F)cc(C(=O)O)cc2n1C[C@@H]1CCO1 [Compound I-368]
–,–,109,0.0605 nM,–,C[C@H]1c2nc(OCc3cc(F)c(Cl)cc3F)c(C(F)(F)F)cc2CCN1Cc1nc2ccc(C(=O)O)c(F)c2n1C[C@@H]1CCO1 [Compound I-245]
–,–,102,0.103 nM,–,COc1cc(C(=O)O)cc2c1nc(CN1CCc3cc(C(F)(F)F)c(OCc4c(F)cc(Cl)cc4F)cc3[C@@H]1C)n2C[C@@H]1CCO1 [Compound I-237]
–,–,95.3,2.43 nM,–,C[C@H]1c2cc(OCc3ccc(Cl)cc3)c(Cl)cc2CCN1Cc1nc2ccc(C(=O)O)c(F)c2n1C[C@@H]1CCO1 [Compound I-319]
–,–,100,1.27 nM,–,C[C@H]1c2cc(OCc3cc(F)c(Cl)cc3F)c(Cl)cc2CCN1Cc1nc2c(F)cc(C(=O)O)cc2n1C[C@@H]1CCO1 [Compound I-338]
–,–,105,8.8 nM,–,O=C(O)c1ccc2nc(CN3CCc4cc(C(F)(F)F)c(OCc5ccc(Cl)cn5)nc4C3)n(C[C@@H]3CCO3)c2c1 [Compound I-263]
–,–,121,0.0301 nM,–,C[C@H]1c2nc(OCc3ccc(Cl)cc3F)c(C(F)(F)F)cc2CCN1Cc1nc2c(F)cc(C(=O)O)cc2n1C[C@@H]1CCO1 [Compound I-273]
–,–,119,0.389 nM,–,C[C@H]1c2nc(OCc3ccc(OC(F)F)cc3F)c(C(F)(F)F)cc2CCN1Cc1nc2ccc(C(=O)O)cc2n1C[C@@H]1CCO1 [Compound I-256]
–,–,115,0.0911 nM,–,Cc1ccc(COc2nc3c(cc2C(F)(F)F)CCN(Cc2nc4c(F)cc(C(=O)O)cc4n2C[C@@H]2CCO2)[C@H]3C)cc1 [Compound I-363]
–,–,97.7,2.56 nM,–,Cc1ccc(COc2cc3c(cc2Cl)CCN(Cc2nc4ccc(C(=O)O)c(F)c4n2C[C@@H]2CCO2)[C@H]3C)cc1 [Compound I-317]
–,–,102,0.818 nM,–,O=C(O)c1ccc2nc(CN3CCc4cc(C(F)(F)F)c(OCc5ccc(F)cc5F)nc4C3)n(C[C@@H]3CCO3)c2c1F [Compound I-297]
–,–,118,0.266 nM,–,C[C@H]1c2nc(OCc3ccc(F)cc3)c(C(F)(F)F)cc2CCN1Cc1nc2ccc(C(=O)O)nc2n1C[C@@H]1CCO1 [Compound I-290]
–,–,96.7,1.16 nM,–,C[C@H]1c2cc(OCc3c(F)cc(Cl)cc3F)c(Cl)cc2CCN1Cc1nc2ccc(C(=O)O)c(F)c2n1C[C@@H]1CCO1 [Compound I-329]
–,–,120,0.0134 nM,–,COc1cc(C(=O)O)cc2c1nc(CN1CCc3cc(C(F)(F)F)c(OCc4ccc(Cl)cc4F)nc3[C@@H]1C)n2C[C@@H]1CCO1 [Compound I-274]
–,–,116,0.0124 nM,–,COc1cc(C(=O)O)cc2c1nc(CN1CCc3cc(C(F)(F)F)c(OCc4ccc(C#N)cc4F)nc3[C@@H]1C)n2C[C@@H]1CCO1 [Compound I-242]
–,–,115,0.0523 nM,–,COc1cc(Cl)ccc1COc1nc2c(cc1C(F)(F)F)CCN(Cc1nc3c(OC)cc(C(=O)O)cc3n1C[C@@H]1CCO1)C2 [Compound I-388]

# — patent publication US20240217966A1, “PHARMACEUTICAL COMPOSITION CONTAINING GLP-1 RECEPTOR AGONIST HAVING FUSED RING” (Shionogi & Co., Ltd., priority 2021, published 2024)
